Assay results published in PubChem BioAssay (NCI).
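The compound was tested at five concentrations on cells cultured in 96-well plates, with a 48-hour exposure period. The concentration for 50% growth inhibition is given as GI50. TGI: concentration producing complete growth inhibition.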

Assays:
Assay in all cases: NCI-60 cell line screen, 48 h
LOX IMVI melanoma = test system: LOX IMVI melanoma
HOP-62 NSCLC = test system: HOP-62 NSCLC
RXF 393 renal = test system: RXF 393 renal
HCT-116 colon = test system: HCT-116 colon
TK-10 renal = test system: TK-10 renal
HCC-2998 colon = test system: HCC-2998 colon
OVCAR-3 ovarian = test system: OVCAR-3 ovarian
MDA-MB-231 breast = test system: MDA-MB-231 breast
NCI-H23 lung = test system: NCI-H23 lung
UACC-62 melanoma = test system: UACC-62 melanoma

Q: What does the source list for `COc1ccc2c(Nc3ccc(NS(C)(=O)=O)cc3)c3ccccc3nc2c1`?
A: GI50 (LOX IMVI melanoma): 0.285 µM; TGI (LOX IMVI melanoma): 2.34 µM; GI50 (HOP-62 NSCLC): 0.429 µM; TGI (HOP-62 NSCLC): 2.72 µM; GI50 (RXF 393 renal): 0.871 µM; TGI (RXF 393 renal): 2.4 µM; GI50 (HCT-116 colon): 0.262 µM; TGI (HCT-116 colon): 3.96 µM; GI50 (TK-10 renal): 0.596 µM; TGI (TK-10 renal): 4.96 µM; GI50 (HCC-2998 colon): 0.732 µM; TGI (HCC-2998 colon): 2.3 µM; GI50 (OVCAR-3 ovarian): 0.99 µM; TGI (OVCAR-3 ovarian): 3.09 µM; GI50 (MDA-MB-231 breast): 1.52 µM; TGI (MDA-MB-231 breast): 6.65 µM; GI50 (NCI-H23 lung): 0.475 µM; TGI (NCI-H23 lung): 2.49 µM; GI50 (UACC-62 melanoma): 0.383 µM; TGI (UACC-62 melanoma): 1.93 µM

Q: For `ClC(Cl)c1nc(-c2cccnc2)n2nc(-c3ccccc3)cc2n1`, which GI50 (HOP-62 NSCLC) is on record?
A: 1.69 µM

Q: And the TGI (HOP-62 NSCLC)?
A: 6.44 µM

Q: And the GI50 (RXF 393 renal)?
A: 1.13 µM

Q: What about the TGI (RXF 393 renal) of the same compound?
A: 2.45 µM

Q: What about the GI50 (HCT-116 colon) of the same compound?
A: 1.43 µM

Q: What about the TGI (HCT-116 colon) of the same compound?
A: 6.29 µM

Q: And the GI50 (TK-10 renal)?
A: 1.84 µM

Q: What about the TGI (TK-10 renal) of the same compound?
A: 6.49 µM

Q: And the GI50 (HCC-2998 colon)?
A: 0.639 µM

Q: What about the TGI (HCC-2998 colon) of the same compound?
A: 2.15 µM

Q: And the GI50 (OVCAR-3 ovarian)?
A: 1.61 µM

Q: And the TGI (OVCAR-3 ovarian)?
A: 4.16 µM

Q: What about the GI50 (MDA-MB-231 breast) of the same compound?
A: 1.98 µM

Q: What about the TGI (MDA-MB-231 breast) of the same compound?
A: 5.07 µM

Q: What about the GI50 (NCI-H23 lung) of the same compound?
A: 0.62 µM

Q: What about the TGI (NCI-H23 lung) of the same compound?
A: 2.9 µM

Q: Which results are given for `CC1=C[C@H]2c3c(c(O)c(O)c4oc5ccccc5c(=O)c34)[C@H](c3cc(O)c(O)c4oc5ccccc5c(=O)c34)[C@H]2C(C)(C)C1`?
A: GI50 (LOX IMVI melanoma): 0.451 µM; TGI (LOX IMVI melanoma): 1.76 µM; GI50 (HOP-62 NSCLC): 0.978 µM; TGI (HOP-62 NSCLC): 8.35 µM; GI50 (RXF 393 renal): 0.42 µM; TGI (RXF 393 renal): 2.52 µM; GI50 (HCT-116 colon): 0.224 µM; TGI (HCT-116 colon): 1.75 µM; GI50 (TK-10 renal): 2.19 µM; TGI (TK-10 renal): 15.3 µM; GI50 (HCC-2998 colon): 1.87 µM; TGI (HCC-2998 colon): 6.03 µM; GI50 (OVCAR-3 ovarian): 0.426 µM; TGI (OVCAR-3 ovarian): 10.5 µM; GI50 (MDA-MB-231 breast): 2.9 µM; TGI (MDA-MB-231 breast): 19.1 µM; GI50 (NCI-H23 lung): 0.518 µM; TGI (NCI-H23 lung): 3.22 µM; GI50 (UACC-62 melanoma): 0.707 µM; TGI (UACC-62 melanoma): 2.33 µM

Q: What does the source list for `CCN1C(=S)N(CC)C2C1NC(=S)N2/N=C/C=C/c1ccccc1` (configuration not stated)?
A: GI50 (LOX IMVI melanoma): 2.81 µM; TGI (LOX IMVI melanoma): 17 µM; GI50 (HOP-62 NSCLC): 2.26 µM; TGI (HOP-62 NSCLC): 15.7 µM; GI50 (RXF 393 renal): 1.57 µM; TGI (RXF 393 renal): 6.58 µM; GI50 (HCT-116 colon): 1.3 µM; TGI (HCT-116 colon): 12.4 µM; GI50 (TK-10 renal): 7.65 µM; TGI (TK-10 renal): 23.1 µM; GI50 (HCC-2998 colon): 2.84 µM; TGI (HCC-2998 colon): 16.9 µM; GI50 (OVCAR-3 ovarian): 0.52 µM; TGI (OVCAR-3 ovarian): 4.97 µM; GI50 (MDA-MB-231 breast): 2.75 µM; TGI (MDA-MB-231 breast): 14.6 µM; GI50 (NCI-H23 lung): 4.49 µM; TGI (NCI-H23 lung): 22 µM; GI50 (UACC-62 melanoma): 1.37 µM; TGI (UACC-62 melanoma): 14.9 µM

Q: `Cc1nc2ccc(Nc3nc(NCCN4CCOCC4)nc(Nc4ccc(F)cc4)n3)cc2n1Cc1ccccc1` was tested. Which GI50 (HOP-62 NSCLC) did it give?
A: 1.88 µM

Q: What about the TGI (HOP-62 NSCLC) of the same compound?
A: 6.23 µM

Q: What about the GI50 (RXF 393 renal) of the same compound?
A: 1.59 µM

Q: And the TGI (RXF 393 renal)?
A: 4.07 µM

Q: And the GI50 (HCT-116 colon)?
A: 2.02 µM

Q: What about the TGI (HCT-116 colon) of the same compound?
A: 5.43 µM

Q: What about the GI50 (TK-10 renal) of the same compound?
A: 7.26 µM

Q: And the TGI (TK-10 renal)?
A: 32.2 µM

Q: What about the GI50 (HCC-2998 colon) of the same compound?
A: 2.74 µM

Q: What about the TGI (HCC-2998 colon) of the same compound?
A: 6.23 µM

Q: What about the GI50 (OVCAR-3 ovarian) of the same compound?
A: 4.24 µM

Q: And the TGI (OVCAR-3 ovarian)?
A: 20.3 µM

Q: And the GI50 (MDA-MB-231 breast)?
A: 1.71 µM

Q: What about the TGI (MDA-MB-231 breast) of the same compound?
A: 3.71 µM

Q: And the GI50 (NCI-H23 lung)?
A: 3.67 µM

Q: What about the TGI (NCI-H23 lung) of the same compound?
A: 24.8 µM

Q: And the GI50 (UACC-62 melanoma)?
A: 2.27 µM

Q: What about the TGI (UACC-62 melanoma) of the same compound?
A: 6.18 µM

Q: For `Nc1nnc2cc(Cl)ccc2n1`, which GI50 (LOX IMVI melanoma) is on record?
A: > 100 µM

Q: And the TGI (LOX IMVI melanoma)?
A: > 100 µM

Q: And the GI50 (HOP-62 NSCLC)?
A: > 100 µM

Q: What about the TGI (HOP-62 NSCLC) of the same compound?
A: > 100 µM

Q: What about the GI50 (RXF 393 renal) of the same compound?
A: > 100 µM

Q: What about the TGI (RXF 393 renal) of the same compound?
A: > 100 µM

Q: And the GI50 (HCT-116 colon)?
A: > 100 µM

Q: And the TGI (HCT-116 colon)?
A: > 100 µM

Q: And the GI50 (HCC-2998 colon)?
A: > 100 µM

Q: What about the TGI (HCC-2998 colon) of the same compound?
A: > 100 µM

Q: What about the GI50 (OVCAR-3 ovarian) of the same compound?
A: > 100 µM

Q: And the TGI (OVCAR-3 ovarian)?
A: > 100 µM

Q: And the GI50 (MDA-MB-231 breast)?
A: > 100 µM

Q: And the TGI (MDA-MB-231 breast)?
A: > 100 µM

Q: What about the GI50 (NCI-H23 lung) of the same compound?
A: > 100 µM

Q: What about the TGI (NCI-H23 lung) of the same compound?
A: > 100 µM

Q: What about the GI50 (UACC-62 melanoma) of the same compound?
A: > 100 µM

Q: And the TGI (UACC-62 melanoma)?
A: > 100 µM
